In PMC3482425 (Journal of medicinal chemistry, 2012):

Columns and labels:
[1] = system: SFRP2 in Calu-6 anaplastic epithelial lung carcinoma cells; test: Re-expression of SFRP2 in Calu-6 cells; type: cell-based, human; settings: 24 or 48 hours
[2] = system: HCAD in Calu-6 anaplastic epithelial lung carcinoma cells; test: Re-expression of HCAD in Calu-6 cells; type: cell-based, human; settings: 10 μM
[3] = system: H3K4me1 levels in Calu-6 human lung adenocarcinoma cell line; test: Global H3K4me1 levels in Calu-6 cells; type: cell-based; settings: at both 24 and 48 hours
[4] = system: global H3K4me2 levels in Calu-6 human lung adenocarcinoma cells; settings: time point not stated
LSD1 = settings: read-out: IC50 (LSD1 inhibitor); cited from earlier work
[5] = system: global H3K4me2 levels in Calu-6 human lung adenocarcinoma cells; test: cells; settings: Calu-6, 48 h, read-out: H3K4me2 Fold Increase (48 h), 10 μM, Calu-6 cells

For CCNCCCCNCCCCNCCCCNCCCCNC/C=C/CNCCCCNCCCCNCCCCNCCCCNCC [PG11144], the “effect on SFRP2 levels” value ([1]; 5 μM) was “no effect” and the “fold increase in HCAD expression, 24 hours” value [2] was 1.47 fold.
In the case of Cl.Cl.NCCNc1c([N+](=O)[O-])cc(C(F)(F)F)cc1[N+](=O)[O-] [Compound 6], the “Increases in H3K4me1 levels” value [3] is reported as “unremarkable” and the “changes in H3K4 / lysine methylation in the Calu-6 cell line” value [4] is reported as “no effect”.
In the case of Cl.N=C(N)SCCCCN1C(=O)c2ccccc2C1=O [Compound 9], the “Increases in H3K4me1 levels” value [3] is reported as “unremarkable”.
In the case of Cl.N=C(N)SCCCN1C(=O)c2ccccc2C1=O [Compound 8], the “Increases in H3K4me1 levels” value [3] is reported as “unremarkable”.
For N=C(N)NN [Aminoguanidine], the “effect on SFRP2 levels” value ([1]; 1 mM) was “no effect”.
In the case of N=C(NCCCNCCCCCCCNCCCNC(=N)NC(=N)NCCC(c1ccccc1)c1ccccc1)NC(=N)NCCC(c1ccccc1)c1ccccc1 [Compound 2d, (bis)-3,3-(diphenyl)propylbiguanide, reference compound], the fold induction at 10 µM [5] is reported as 5.
For Cl.N=C(N)SCCN1C(=O)c2ccccc2C1=O [Compound 5, 2-[N-(phthalimido)]ethyl carbamimidothioate hydrochloride], the “Increases in H3K4me1 levels” value [3] was “unremarkable”.
